Measurements taken from PubChem BioAssay (NCI).
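Briefly, cells in 96-well plates were exposed to five compound concentrations for 48 h, and endpoints were estimated by linear interpolation. At the GI50, growth is halved. At the TGI there is no net growth.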

Experiments:
Assay in all cases: growth of human tumour cells (NCI), 48 h
[1] = tested on: SNB-19 CNS
[2] = tested on: UACC-62 melanoma
[3] = tested on: OVCAR-3 ovarian
[4] = tested on: RXF 393 renal
[5] = tested on: NCI-H23 lung
[6] = tested on: SR leukemia
[7] = tested on: CCRF-CEM leukemia
[8] = tested on: TK-10 renal
[9] = tested on: LOX IMVI melanoma
[10] = tested on: HS 578T breast
[11] = tested on: SK-MEL-2 melanoma
[12] = tested on: OVCAR-4 ovarian
[13] = tested on: KM12 colon
[14] = tested on: BT-549 breast
[15] = tested on: SF-539 CNS
[16] = tested on: OVCAR-5 ovarian
[17] = tested on: SW-620 colon
[18] = tested on: HCT-116 colon
[19] = tested on: MDA-MB-468 breast
[20] = tested on: MDA-MB-435
[21] = tested on: HOP-62 NSCLC
[22] = tested on: SF-295 CNS
[23] = tested on: UO-31 renal
[24] = tested on: K-562 leukemia
[25] = tested on: NCI-H460 lung
[26] = tested on: UACC-257 melanoma
[27] = tested on: MCF7 breast
[28] = tested on: COLO 205 colon
[29] = tested on: DU-145 prostate
[30] = tested on: RPMI-8226 leukemia
[31] = tested on: CAKI-1 renal
[32] = tested on: ACHN renal
[33] = tested on: SF-268 CNS
[34] = tested on: SNB-75 CNS
[35] = tested on: HCC-2998 colon
[36] = tested on: HOP-92 NSCLC
[37] = tested on: MDA-MB-231 breast
[38] = tested on: HL-60(TB) leukemia
[39] = tested on: IGROV1 ovarian
[40] = tested on: T-47D breast
[41] = tested on: SN12C renal
[42] = tested on: A498 renal
[43] = tested on: HCT-15 colon
[44] = tested on: 786-0 renal
[45] = tested on: SK-MEL-5 melanoma
[46] = tested on: HT29 colon
[47] = tested on: NCI-H522 lung
[48] = tested on: M14 melanoma
[49] = tested on: NCI-H226 lung
[50] = tested on: OVCAR-8 ovarian
[51] = tested on: A549 NSCLC
[52] = tested on: PC-3 prostate
[53] = tested on: MALME-3M melanoma
[54] = tested on: SK-MEL-28 melanoma
[55] = tested on: MOLT-4 leukemia
[56] = tested on: U251 CNS
[57] = tested on: EKVX NSCLC
[58] = tested on: SK-OV-3 ovarian

Question: How did the GI50 [1] turn out when `O=C(c1ccc(O)cc1)C1[C@H](c2ccccc2Br)[C@@H](c2ccccc2)NC12C(=O)Nc1ccccc12` (stereo partly specified) was run?
Answer: 9.03 µM

Question: What about the TGI [1] of the same molecule?
Answer: 17.2 µM

Question: And the GI50 [2]?
Answer: 7.63 µM

Question: What about the TGI [2] of the same molecule?
Answer: 15.1 µM

Question: What about the GI50 [3] of the same molecule?
Answer: 9.2 µM

Question: And the TGI [3]?
Answer: 18.3 µM

Question: What about the GI50 [4] of the same molecule?
Answer: 5.14 µM

Question: What about the TGI [4] of the same molecule?
Answer: 12.8 µM

Question: And the GI50 [5]?
Answer: 9.23 µM

Question: And the TGI [5]?
Answer: 18.2 µM

Question: And the GI50 [6]?
Answer: 9.59 µM

Question: And the TGI [6]?
Answer: 24 µM

Question: What about the GI50 [7] of the same molecule?
Answer: 10 µM

Question: What about the TGI [7] of the same molecule?
Answer: 22.9 µM

Question: What about the GI50 [8] of the same molecule?
Answer: 9.29 µM

Question: And the TGI [8]?
Answer: 18.8 µM

Question: And the GI50 [9]?
Answer: 8.3 µM

Question: And the TGI [9]?
Answer: 16.2 µM

Question: And the GI50 [10]?
Answer: 9.49 µM

Question: What about the TGI [10] of the same molecule?
Answer: 27.2 µM

Question: And the GI50 [11]?
Answer: 8.33 µM

Question: What about the TGI [11] of the same molecule?
Answer: 16.2 µM

Question: What about the GI50 [12] of the same molecule?
Answer: 8.72 µM

Question: And the TGI [12]?
Answer: 19.1 µM

Question: And the GI50 [13]?
Answer: 9.8 µM

Question: And the TGI [13]?
Answer: 20.2 µM

Question: What about the GI50 [14] of the same molecule?
Answer: 7.23 µM

Question: What about the TGI [14] of the same molecule?
Answer: 15 µM

Question: What about the GI50 [15] of the same molecule?
Answer: 9.08 µM

Question: What about the TGI [15] of the same molecule?
Answer: 17.2 µM

Question: And the GI50 [16]?
Answer: 9.47 µM

Question: What about the TGI [16] of the same molecule?
Answer: 18.2 µM

Question: What about the GI50 [17] of the same molecule?
Answer: 10.1 µM

Question: What about the TGI [17] of the same molecule?
Answer: 19.6 µM

Question: What about the GI50 [18] of the same molecule?
Answer: 8.93 µM

Question: What about the TGI [18] of the same molecule?
Answer: 18 µM

Question: What about the GI50 [19] of the same molecule?
Answer: 7.08 µM

Question: What about the TGI [19] of the same molecule?
Answer: 16 µM

Question: What about the GI50 [20] of the same molecule?
Answer: 10.5 µM

Question: And the TGI [20]?
Answer: 20 µM

Question: What about the GI50 [21] of the same molecule?
Answer: 9.37 µM

Question: What about the TGI [21] of the same molecule?
Answer: 18.1 µM

Question: What about the GI50 [22] of the same molecule?
Answer: 9.77 µM

Question: And the TGI [22]?
Answer: 21 µM

Question: And the GI50 [23]?
Answer: 7.61 µM

Question: And the TGI [23]?
Answer: 15 µM

Question: And the GI50 [24]?
Answer: 12.9 µM

Question: What about the TGI [24] of the same molecule?
Answer: 40.2 µM

Question: And the GI50 [25]?
Answer: 9.17 µM

Question: And the TGI [25]?
Answer: 17.8 µM

Question: What about the GI50 [26] of the same molecule?
Answer: 8.73 µM

Question: And the TGI [26]?
Answer: 16.9 µM

Question: What about the GI50 [27] of the same molecule?
Answer: 10.4 µM

Question: And the TGI [27]?
Answer: 27.6 µM

Question: And the GI50 [28]?
Answer: 9.19 µM

Question: What about the TGI [28] of the same molecule?
Answer: 17.8 µM

Question: And the GI50 [29]?
Answer: 10 µM

Question: And the TGI [29]?
Answer: 19 µM

Question: And the GI50 [30]?
Answer: 12.8 µM

Question: What about the TGI [30] of the same molecule?
Answer: 42.6 µM

Question: And the GI50 [31]?
Answer: 7 µM

Question: And the TGI [31]?
Answer: 15.1 µM

Question: And the GI50 [32]?
Answer: 9.17 µM

Question: And the TGI [32]?
Answer: 17.8 µM

Question: And the GI50 [33]?
Answer: 7.83 µM

Question: What about the TGI [33] of the same molecule?
Answer: 18.8 µM

Question: And the GI50 [34]?
Answer: 7.87 µM

Question: What about the TGI [34] of the same molecule?
Answer: 19.9 µM

Question: And the GI50 [35]?
Answer: 8.48 µM

Question: What about the TGI [35] of the same molecule?
Answer: 16.6 µM

Question: And the GI50 [36]?
Answer: 7.83 µM

Question: And the TGI [36]?
Answer: 16.4 µM

Question: And the GI50 [37]?
Answer: 7.94 µM

Question: And the TGI [37]?
Answer: 15.8 µM

Question: What about the GI50 [38] of the same molecule?
Answer: 15.1 µM

Question: What about the TGI [38] of the same molecule?
Answer: 44.7 µM

Question: And the GI50 [39]?
Answer: 7.29 µM

Question: And the TGI [39]?
Answer: 15.5 µM

Question: And the GI50 [40]?
Answer: 10.5 µM

Question: And the TGI [40]?
Answer: 38.9 µM

Question: And the GI50 [41]?
Answer: 8.7 µM

Question: And the TGI [41]?
Answer: 16.6 µM

Question: And the GI50 [42]?
Answer: 8.6 µM

Question: What about the TGI [42] of the same molecule?
Answer: 16.8 µM

Question: And the GI50 [43]?
Answer: 9.43 µM

Question: And the TGI [43]?
Answer: 20 µM

Question: What about the GI50 [44] of the same molecule?
Answer: 9.47 µM

Question: What about the TGI [44] of the same molecule?
Answer: 18.1 µM

Question: And the GI50 [45]?
Answer: 8.92 µM

Question: What about the TGI [45] of the same molecule?
Answer: 16.9 µM

Question: What about the GI50 [46] of the same molecule?
Answer: 10.2 µM

Question: And the TGI [46]?
Answer: 20.5 µM

Question: And the GI50 [47]?
Answer: 8.25 µM

Question: What about the TGI [47] of the same molecule?
Answer: 17.5 µM

Question: What about the GI50 [48] of the same molecule?
Answer: 8.94 µM

Question: And the TGI [48]?
Answer: 17.7 µM

Question: What about the GI50 [49] of the same molecule?
Answer: 6.82 µM

Question: And the TGI [49]?
Answer: 15 µM

Question: And the GI50 [50]?
Answer: 9.27 µM

Question: What about the TGI [50] of the same molecule?
Answer: 17.7 µM

Question: And the GI50 [51]?
Answer: 8.07 µM

Question: What about the TGI [51] of the same molecule?
Answer: 16.9 µM

Question: What about the GI50 [52] of the same molecule?
Answer: 8.03 µM

Question: What about the TGI [52] of the same molecule?
Answer: 21.3 µM

Question: What about the GI50 [53] of the same molecule?
Answer: 8.58 µM

Question: And the TGI [53]?
Answer: 16.4 µM

Question: What about the GI50 [54] of the same molecule?
Answer: 9.1 µM

Question: What about the TGI [54] of the same molecule?
Answer: 17.2 µM

Question: And the GI50 [55]?
Answer: 7.99 µM

Question: What about the TGI [55] of the same molecule?
Answer: 25 µM

Question: What about the GI50 [56] of the same molecule?
Answer: 9.11 µM

Question: And the TGI [56]?
Answer: 17.1 µM

Question: And the GI50 [57]?
Answer: 9.34 µM

Question: And the TGI [57]?
Answer: 23.2 µM

Question: What about the GI50 [58] of the same molecule?
Answer: 11.9 µM

Question: What about the TGI [58] of the same molecule?
Answer: 31.3 µM
